Test results: patent publication US7138361B2, “Herbicidal heterocycles” (E. I. du Pont de Nemours and Company, priority 2000, dated 2006)

Assays:
Format in all cases: in vivo
[1] = tested on: Surinam grass (Brachiaria decumbens); test: Test B preemergence
In short: (§1)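 Visual injury scores, 0 = no effect to 100 = complete control, assigned against controls after 13 to 15 days in the greenhouse. Compounds formulated in non-phytotoxic solvent plus surfactant and applied to soil after planting (pre) or onto foliage of 1- to 4-leaf plants (post).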

[2] = tested on: barnyardgrass (Echinochloa crus-galli); test: Test B preemergence
In short: as §1

[3] = tested on: cocklebur (Xanthium strumarium); test: Test B preemergence
In short: as §1

corn (Zea mays) = test: Test B preemergence
In short: as §1

[4] = tested on: crabgrass (Digitaria sanguinalis); test: Test B preemergence
In short: as §1

[5] = tested on: giant foxtail (Setaria faberii); test: Test B preemergence
In short: as §1

[6] = tested on: lambsquarters (Chenopodium album); test: Test B preemergence
In short: as §1

[7] = tested on: morning glory (Ipomoea hederacea); test: Test B preemergence
In short: as §1

[8] = tested on: pigweed (Amaranthus retroflexus); test: Test B preemergence
In short: as §1

rice (Oryza saliva) = test: Test B preemergence
In short: as §1

[9] = tested on: velvetleaf (Abutilon theophrasti); test: Test B preemergence
In short: as §1

Sunflower [10] = test: Test C preemergence; details: Rate 125 g/ha; scale 0 to 100, 0 no effect, 100 complete control
[11] = tested on: Surinam grass (Brachiaria decumbens); test: Test C preemergence; details: for Plant response rating, Surinam grass: scale 0 to 100, 0 no effect, 100 complete control; for Plant response rating (0 to 100), Surinam grass: preemergence, visual evaluation after 12 to 14 days
In short: (§2)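 Visual 0–100 rating vs controls (0 = no effect, 100 = complete control) at 12–14 d, greenhouse. Compounds in non-phytotoxic solvent + surfactant; pre: sprayed after seeding; post: 1–4-leaf plants, 2–18 cm.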

[12] = tested on: bermudagrass (Cynodon dactylon); test: Test C preemergence; details: for Plant response rating, Bermudagrass: scale 0 to 100, 0 no effect, 100 complete control; for Plant response rating (0 to 100 where 0 is no effect and 100 is complete control), Bermudagrass: preemergence, visual evaluation after 12 to 14 days
In short: as §2

[13] = tested on: cocklebur (Xanthium strumarium); test: Test C preemergence; details: for Plant response rating, Cocklebur: scale 0 to 100, 0 no effect, 100 complete control; for Plant response rating (0 to 100), Cocklebur: preemergence, visual evaluation after 12 to 14 days
In short: as §2

[14] = tested on: common ragweed (Ambrosia elatior); test: Test C preemergence; details: for Plant response rating, Ragweed, Common: scale 0 to 100, 0 no effect, 100 complete control
In short: as §2

[15] = tested on: crabgrass (Digitaria sanguinalis); test: Test C preemergence; details: for Plant response rating, Crabgrass: scale 0 to 100, 0 no effect, 100 complete control; for Plant response rating (0 to 100), Crabgrass: preemergence, visual evaluation after 12 to 14 days
In short: as §2

[16] = tested on: giant foxtail (Setaria faberii); test: Test C preemergence; details: for Plant response rating, Foxtail, Giant: scale 0 to 100, 0 no effect, 100 complete control; for Plant response rating (0 to 100), Foxtail, Giant: preemergence, visual evaluation after 12 to 14 days
In short: as §2

[17] = tested on: goosegrass (Eleusine indica); test: Test C preemergence; details: for Plant response rating, Goosegrass: scale 0 to 100, 0 no effect, 100 complete control; for Plant response rating (0 to 100), Goosegrass: preemergence, visual evaluation after 12 to 14 days
In short: as §2

[18] = tested on: morningglory (Ipomoea hederacea); test: Test C preemergence; details: for Plant response rating, Morningglory: scale 0 to 100, 0 no effect, 100 complete control
In short: as §2

[19] = tested on: velvetleaf (Abutilon theophrasti); test: Test C preemergence; details: for Plant response rating, Velvetleaf: scale 0 to 100, 0 no effect, 100 complete control
In short: as §2

Sunflower [20] = test: Test C preemergence; details: Rate 500 g/ha, visual evaluation after 12 to 14 days
[21] = Preemergence, Rate 500 g/ha, scale 0 to 100, 0 no effect, 100 complete control
[22] = preemergence, Rate 125 g/ha, scale of 0 to 100 where 0 is no effect and 100 is complete control, 13 to 15 days
[23] = preemergence, Rate 500 g/ha, visual evaluation after 12 to 14 days

`CC(C)(C)c1ccn(C2CCN(c3cccc(OC(F)F)c3)C2=O)n1` (stereo not shown) [Compound 76] was tested. Which “Plant response rating, Surinam grass” value [1, 21] did it give?
The value was 100.

What about the “Plant response rating, Surinam grass” value [1, 22] of the same molecule?
Its value is 80.

What about the “Plant response rating, Barnyardgrass” value [2, 21] of the same molecule?
Its value is 100.

What about the “Plant response rating, Barnyardgrass” value [2, 22] of the same molecule?
The value was 100.

And the “Plant response rating, Cocklebur” value [3, 21]?
The value was 0.

What about the “Plant response rating, Cocklebur” value [3, 22] of the same molecule?
The value was 0.

What about the “Plant response rating, Corn” value (corn (Zea mays); [21]) of the same molecule?
Its value is 70.

What about the “Plant response rating, Corn” value (corn (Zea mays); [22]) of the same molecule?
Its value is 0.

And the “Plant response rating, Crabgrass” value [4, 21]?
The value was 100.

What about the “Plant response rating, Crabgrass” value [4, 22] of the same molecule?
The value was 100.

What about the “Plant response rating, Foxtail, Giant” value [5, 21] of the same molecule?
The value was 100.

What about the “Plant response rating, Foxtail, Giant” value [5, 22] of the same molecule?
The value was 100.

And the “Plant response rating, Lambsquarters” value [6, 21]?
Its value is 100.

What about the “Plant response rating, Lambsquarters” value [6, 22] of the same molecule?
The value was 100.

What about the “Plant response rating, Morningglory” value [7, 21] of the same molecule?
The value was 100.

And the “Plant response rating, Morningglory” value [7, 22]?
The value was 0.

What about the “Plant response rating, Pigweed” value [8, 21] of the same molecule?
Its value is 100.

And the “Plant response rating, Pigweed” value [8, 22]?
The value was 100.

What about the “Plant response rating, Rice” value (rice (Oryza saliva); [21]) of the same molecule?
Its value is 90.

And the “Plant response rating, Rice” value (rice (Oryza saliva); [22])?
The value was 70.

And the “Plant response rating, Velvetleaf” value [9, 21]?
The value was 0.

And the “Plant response rating, Velvetleaf” value [9, 22]?
Its value is 0.

And the “Plant response rating, Sunflower” value (Sunflower [10])?
The value was 20.

And the “Plant response rating, Surinam grass” value ([11]; Rate 62 g/ha)?
Its value is 50.

And the “Plant response rating, Surinam grass” value ([11]; Rate 125 g/ha)?
Its value is 60.

And the “Plant response rating (0 to 100), Surinam grass” value ([11]; Rate 250 g/ha)?
Its value is 80.

And the “Plant response rating (0 to 100), Surinam grass” value ([11]; Rate 500 g/ha)?
Its value is 100.

What about the “Plant response rating, Bermudagrass” value ([12]; Rate 62 g/ha) of the same molecule?
The value was 100.

And the “Plant response rating, Bermudagrass” value ([12]; Rate 125 g/ha)?
The value was 100.

And the “Plant response rating (0 to 100 where 0 is no effect and 100 is complete control), Bermudagrass” value ([12]; Rate 250 g/ha)?
The value was 100.

And the “Plant response rating (0 to 100 where 0 is no effect and 100 is complete control), Bermudagrass” value ([12]; Rate 500 g/ha)?
The value was 100.

And the “Plant response rating, Cocklebur” value ([13]; Rate 62 g/ha)?
Its value is 0.

And the “Plant response rating, Cocklebur” value ([13]; Rate 125 g/ha)?
The value was 0.

What about the “Plant response rating (0 to 100), Cocklebur” value ([13]; Rate 250 g/ha) of the same molecule?
The value was 20.

And the “Plant response rating (0 to 100), Cocklebur” value ([13]; Rate 500 g/ha)?
The value was 20.

And the “Plant response rating, Ragweed, Common” value ([14]; Rate 125 g/ha)?
Its value is 0.

And the “Plant response rating (0 to 100), Ragweed, Common” value [14, 23]?
The value was 0.

And the “Plant response rating, Ragweed, Common” value ([14]; preemergence, Rate 250 g/ha)?
Its value is 0.

What about the “Plant response rating, Crabgrass” value ([15]; Rate 62 g/ha) of the same molecule?
The value was 100.

What about the “Plant response rating, Crabgrass” value ([15]; Rate 125 g/ha) of the same molecule?
The value was 100.

What about the “Plant response rating (0 to 100), Crabgrass” value ([15]; Rate 250 g/ha) of the same molecule?
Its value is 100.

What about the “Plant response rating (0 to 100), Crabgrass” value ([15]; Rate 500 g/ha) of the same molecule?
Its value is 100.

What about the “Plant response rating, Foxtail, Giant” value ([16]; Rate 62 g/ha) of the same molecule?
Its value is 100.

What about the “Plant response rating, Foxtail, Giant” value ([16]; Rate 125 g/ha) of the same molecule?
Its value is 100.

And the “Plant response rating (0 to 100), Foxtail, Giant” value ([16]; Rate 250 g/ha)?
The value was 20.

And the “Plant response rating (0 to 100), Foxtail, Giant” value ([16]; Rate 500 g/ha)?
Its value is 90.

What about the “Plant response rating, Goosegrass” value ([17]; Rate 62 g/ha) of the same molecule?
Its value is 100.

What about the “Plant response rating, Goosegrass” value ([17]; Rate 125 g/ha) of the same molecule?
Its value is 100.

And the “Plant response rating (0 to 100), Goosegrass” value ([17]; Rate 250 g/ha)?
Its value is 100.

What about the “Plant response rating (0 to 100), Goosegrass” value ([17]; Rate 500 g/ha) of the same molecule?
The value was 100.

What about the “Plant response rating, Morningglory” value ([18]; Rate 62 g/ha) of the same molecule?
Its value is 10.

And the “Plant response rating, Morningglory” value ([18]; Rate 125 g/ha)?
Its value is 30.

And the “Plant response rating (0 to 100), Morningglory” value [18, 23]?
The value was 30.

What about the “Plant response rating, Morningglory” value ([18]; preemergence, Rate 250 g/ha) of the same molecule?
Its value is 30.

And the “Plant response rating, Velvetleaf” value ([19]; Rate 125 g/ha)?
The value was 20.

And the “Plant response rating (0 to 100), Velvetleaf” value [19, 23]?
The value was 50.

What about the “Plant response rating, Velvetleaf” value ([19]; preemergence, Rate 250 g/ha) of the same molecule?
The value was 20.

What about the “Plant response rating (0 to 100), Sunflower” value (Sunflower [20]) of the same molecule?
The value was 30.
